Test results taken from ChEMBL document CHEMBL1201862, “PubChem BioAssay data set” (2004).
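Grown in 96-well plates, cells were treated for 48 hours with each compound at five concentrations. Insufficient inhibition: endpoint recorded as highest concentration tested. The concentration for 50% growth inhibition is given as GI50.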 Calls of active or inactive are those of the source. No stated cut-off is given here; in the data, active = GI50 up to about 1.1 µM and inactive = higher.

Legend:
Experiment in all cases: NCI-60 cell line screen, 48 h
A549 = tested on: A549
DLD-1 = tested on: DLD-1
HCT-116 = tested on: HCT-116
HOP-92 = tested on: HOP-92
HT-29 = tested on: HT-29
IGROV-1 = tested on: IGROV-1
KM12 = tested on: KM12
LOX IMVI = tested on: LOX IMVI
NCI-H226 = tested on: NCI-H226
NCI-H23 = tested on: NCI-H23
OVCAR-5 = tested on: OVCAR-5
SF-539 = tested on: SF-539
SK-OV-3 = tested on: SK-OV-3
SNB-75 = tested on: SNB-75
U-251 = tested on: U-251
UO-31 = tested on: UO-31
BT-549 = tested on: BT-549
EKVX = tested on: EKVX
HCC 2998 = tested on: HCC 2998
Hs-578T = tested on: Hs-578T

Measured: GI50

O=C(OCc1ccccc1C1CSCSC1)c1cc(C(=O)OCc2ccccc2C2CSCSC2)c(C(=O)OCc2ccccc2C2CSCSC2)cc1C(=O)OCc1ccccc1C1CSCSC1
inactive: A549 > 100 µM | DLD-1 > 100 µM | HCT-116 > 100 µM | HOP-92 > 100 µM | HT-29 > 100 µM | IGROV-1 > 100 µM | KM12 > 100 µM | LOX IMVI > 100 µM | NCI-H226 > 100 µM | NCI-H23 > 100 µM | OVCAR-5 > 100 µM | SF-539 > 100 µM | SK-OV-3 > 100 µM | SNB-75 29.4 µM | U-251 > 100 µM | UO-31 > 100 µM

O=c1oc2ccc3ccccc3c2cc1-c1nc2ccc([N+](=O)[O-])cc2o1
inactive: A549 14.7 µM | BT-549 > 44.5 µM | EKVX 31.3 µM | HCC 2998 > 100 µM | HCT-116 48.6 µM | HOP-92 33.6 µM | HT-29 > 42.7 µM | Hs-578T 56.6 µM | IGROV-1 28.4 µM | KM12 > 59.2 µM | LOX IMVI 22.9 µM | NCI-H226 > 51.2 µM | NCI-H23 41.2 µM | OVCAR-5 > 100 µM | SF-539 10.4 µM | SK-OV-3 > 30.4 µM | SNB-75 14.8 µM | U-251 28.7 µM | UO-31 > 49.2 µM

OCC(O)C(O)C(O)C(O)c1nnn[nH]1 (configuration not stated)
inactive: A549 > 100 µM | DLD-1 > 100 µM | EKVX > 100 µM | HCT-116 > 100 µM | HOP-92 > 100 µM | HT-29 > 100 µM | IGROV-1 > 100 µM | KM12 > 100 µM | LOX IMVI > 100 µM | NCI-H226 > 100 µM | NCI-H23 > 100 µM | OVCAR-5 > 100 µM | SF-539 > 100 µM | SK-OV-3 > 100 µM | U-251 > 100 µM | UO-31 > 100 µM

Cc1ccc(NC(=O)c2cc3cc(/N=N/c4ccccc4C(=O)O)ccc3oc2=O)cc1
inactive: A549 40.9 µM | DLD-1 41 µM | EKVX 46.1 µM | HCT-116 28.4 µM | HT-29 38.5 µM | IGROV-1 41.2 µM | KM12 44.5 µM | LOX IMVI 35.2 µM | NCI-H226 39.4 µM | NCI-H23 32.1 µM | SF-539 30.5 µM | SK-OV-3 74 µM | SNB-75 45.9 µM | U-251 43.2 µM | UO-31 30.1 µM

Brc1ccccc1C1SCc2nc3ccccc3n21 (configuration not stated)
inactive: A549 26.1 µM | DLD-1 12.7 µM | EKVX 17.3 µM | HCT-116 8.07 µM | HOP-92 10.8 µM | HT-29 23.5 µM | IGROV-1 18.6 µM | KM12 15.9 µM | LOX IMVI 13.2 µM | NCI-H226 17.1 µM | NCI-H23 11.7 µM | OVCAR-5 10.2 µM | SF-539 17.4 µM | SK-OV-3 20.7 µM | SNB-75 21.7 µM | U-251 15.7 µM | UO-31 10.4 µM

CC1(C)CC(=O)c2c(nc(SSc3nc4c(c(-c5ccc(Br)cc5)c3C#N)C(=O)CC(C)(C)C4)c(C#N)c2-c2ccc(Br)cc2)C1
inactive: A549 > 10 µM | BT-549 > 10 µM | EKVX > 10 µM | HCC 2998 > 10 µM | HCT-116 > 10 µM | HOP-92 > 10 µM | HT-29 > 10 µM | Hs-578T > 10 µM | IGROV-1 > 10 µM | KM12 > 10 µM | LOX IMVI > 10 µM | NCI-H226 > 10 µM | NCI-H23 > 10 µM | OVCAR-5 > 10 µM | SF-539 > 10 µM | SK-OV-3 > 10 µM | SNB-75 > 10 µM | U-251 > 10 µM | UO-31 > 10 µM

COc1cc(Br)c(/C=N\c2cccc3ccc(OS(=O)(=O)c4ccc([N+](=O)[O-])cc4)cc23)cc1OC
inactive: A549 33.7 µM | DLD-1 > 100 µM | EKVX > 100 µM | HCC 2998 36.4 µM | HCT-116 > 100 µM | HOP-92 47.3 µM | HT-29 > 100 µM | IGROV-1 > 100 µM | KM12 59.4 µM | LOX IMVI 6.59 µM | NCI-H226 > 100 µM | NCI-H23 44.1 µM | OVCAR-5 > 100 µM | SF-539 > 100 µM | SK-OV-3 > 100 µM | U-251 > 100 µM | UO-31 7.33 µM

COC(=O)C1=C(C[S+]([O-])c2ccc([N+](=O)[O-])cc2[N+](=O)[O-])ON(C)C1c1ccccc1 (configuration not stated)
inactive: A549 99.8 µM | DLD-1 33.8 µM | EKVX > 64.6 µM | HCC 2998 > 37.8 µM | HCT-116 34 µM | HT-29 20.2 µM | IGROV-1 > 84.5 µM | KM12 37.2 µM | LOX IMVI 14.9 µM | NCI-H226 65.2 µM | NCI-H23 25.3 µM | OVCAR-5 > 95.7 µM | SF-539 21.9 µM | SK-OV-3 > 100 µM | SNB-75 16.3 µM | U-251 31.3 µM | UO-31 39.4 µM

[O-][Cl+3]([O-])([O-])[O-].c1ccc(C[P+]2(c3ccccc3)CCCCC2)cc1
inactive: A549 > 100 µM | DLD-1 > 100 µM | EKVX > 100 µM | HCC 2998 70.8 µM | HCT-116 23.7 µM | HT-29 72.8 µM | IGROV-1 > 100 µM | KM12 > 100 µM | LOX IMVI 85.1 µM | NCI-H226 > 100 µM | NCI-H23 > 100 µM | OVCAR-5 > 100 µM | SF-539 > 100 µM | SK-OV-3 > 100 µM | SNB-75 88.9 µM | U-251 38.4 µM | UO-31 > 100 µM

CCN1C[C@]2(C)CC[C@H](O)C34C1C(C[C@@H]32)[C@@]1(O)CC[C@H]2C[C@@H]4[C@@H]1[C@H]2O
inactive: A549 > 100 µM | DLD-1 > 100 µM | HCT-116 > 100 µM | HOP-92 > 100 µM | HT-29 > 100 µM | IGROV-1 > 100 µM | KM12 > 100 µM | LOX IMVI > 100 µM | NCI-H23 > 100 µM | OVCAR-5 > 100 µM | SF-539 > 100 µM | SK-OV-3 > 100 µM | SNB-75 > 100 µM | U-251 > 100 µM | UO-31 > 100 µM

COc1c2ccoc2nc2c(OC)c(OCC(O)C(C)(C)O)ccc12 (configuration not stated) [EVOXINE]
inactive: A549 > 100 µM | BT-549 > 100 µM | EKVX > 100 µM | HCC 2998 > 100 µM | HCT-116 > 100 µM | HOP-92 > 100 µM | HT-29 > 100 µM | Hs-578T > 100 µM | IGROV-1 70 µM | KM12 > 100 µM | LOX IMVI > 100 µM | NCI-H226 > 100 µM | NCI-H23 > 100 µM | OVCAR-5 > 100 µM | SF-539 > 100 µM | SK-OV-3 > 100 µM | SNB-75 63.1 µM | U-251 > 100 µM | UO-31 > 100 µM
